Experimental data published in ChEMBL document CHEMBL1201862, “PubChem BioAssay data set” (2004).
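Test compounds were applied to cells in 96-well plates for 48 hours at 5 doses. GI50: concentration for 50% inhibition of growth.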 The source made the active and inactive calls. Cut-off read from the data, not from the text of the source: active = GI50 up to about 1.1 µM and inactive = higher.

How the values were obtained:
Experiment in all cases: NCI anticancer screen, dose series, 48 h
[1] = system: UACC-62
[2] = system: SK-MEL-28
[3] = system: IGROV-1
[4] = system: HCC 2998
[5] = system: M14
[6] = system: UACC-257
[7] = system: SF-268
[8] = system: SF-295
[9] = system: HOP-62
[10] = system: KM-20L2
[11] = system: NCI-H460
[12] = system: COLO 205
[13] = system: RPMI-8226
[14] = system: MOLT-4
[15] = system: 786-0
[16] = system: A549
[17] = system: SN12C
[18] = system: LOX IMVI
[19] = system: MDA-MB-435
[20] = system: MDA-N

c1csc(C[N+]23CN4CN(CN(C4)C2)C3)c1
GI50 [1]: 22.6 µM (inactive)
GI50 [2]: > 100 µM (inactive)
GI50 [3]: 29.9 µM (inactive)
GI50 [4]: 19.3 µM (inactive)
GI50 [5]: 17 µM (inactive)
GI50 [6]: > 100 µM (inactive)
GI50 [7]: > 100 µM (inactive)
GI50 [8]: > 100 µM (inactive)
GI50 [9]: 21.4 µM (inactive)
GI50 [10]: 26.5 µM (inactive)
GI50 [11]: 23.2 µM (inactive)
GI50 [12]: 20 µM (inactive)
GI50 [13]: 18.9 µM (inactive)
GI50 [14]: 21.6 µM (inactive)
GI50 [15]: 22.6 µM (inactive)
GI50 [16]: 30 µM (inactive)

COCC12CC(CC1=O)C1C2ON2c3ccccc3C(=O)C12c1ccccc1 (stereo not drawn)
GI50 [1]: 77.4 µM (inactive)
GI50 [2]: > 100 µM (inactive)
GI50 [17]: > 100 µM (inactive)
GI50 [3]: > 100 µM (inactive)
GI50 [4]: > 100 µM (inactive)
GI50 [5]: > 100 µM (inactive)
GI50 [6]: 52 µM (inactive)
GI50 [7]: > 100 µM (inactive)
GI50 [8]: > 100 µM (inactive)
GI50 [9]: > 100 µM (inactive)
GI50 [10]: > 100 µM (inactive)
GI50 [12]: > 100 µM (inactive)
GI50 [13]: 40.7 µM (inactive)
GI50 [14]: 52.5 µM (inactive)
GI50 [15]: > 100 µM (inactive)
GI50 [16]: > 100 µM (inactive)

COCCNC(=O)C1C(=O)N(CCOC)C(=O)/C1=N/N (stereo not drawn)
GI50 [18]: > 100 µM (inactive)
GI50 [1]: > 100 µM (inactive)
GI50 [2]: > 100 µM (inactive)
GI50 [17]: > 100 µM (inactive)
GI50 [3]: > 100 µM (inactive)
GI50 [5]: > 100 µM (inactive)
GI50 [6]: > 100 µM (inactive)
GI50 [7]: > 100 µM (inactive)
GI50 [8]: > 100 µM (inactive)
GI50 [10]: > 100 µM (inactive)
GI50 [13]: > 100 µM (inactive)
GI50 [14]: > 100 µM (inactive)
GI50 [15]: > 100 µM (inactive)
GI50 [16]: > 100 µM (inactive)

CSc1ccc(NC(=O)C2c3[nH]c4ccccc4c3C3CCC(C(C)(C)C)CC3C2C(=O)O)cc1 (stereo not drawn)
GI50 [1]: 17.4 µM (inactive)
GI50 [2]: 22.9 µM (inactive)
GI50 [17]: 18.6 µM (inactive)
GI50 [3]: 17 µM (inactive)
GI50 [4]: 33 µM (inactive)
GI50 [5]: 18.4 µM (inactive)
GI50 [6]: 34.1 µM (inactive)
GI50 [7]: 18.9 µM (inactive)
GI50 [8]: 17.6 µM (inactive)
GI50 [9]: 16.9 µM (inactive)
GI50 [10]: 16.3 µM (inactive)
GI50 [12]: 18 µM (inactive)
GI50 [13]: 20.3 µM (inactive)
GI50 [14]: 15.1 µM (inactive)
GI50 [15]: 17.5 µM (inactive)
GI50 [16]: 15.2 µM (inactive)

CC(CO)[C@H]1OC(=O)C=C2[C@@]13O[C@@H]3[C@H]1OC(=O)[C@@]3(C)[C@H]4O[C@H]4C[C@@]2(C)[C@@H]13 (stereo partly drawn)
GI50 [18]: 0.249 µM (active)
GI50 [1]: 1.16 µM (inactive)
GI50 [2]: 1.83 µM (inactive)
GI50 [17]: 1.92 µM (inactive)
GI50 [3]: 1.5 µM (inactive)
GI50 [4]: 1.65 µM (inactive)
GI50 [5]: 1.19 µM (inactive)
GI50 [19]: 1.55 µM (inactive)
GI50 [6]: 1.44 µM (inactive)
GI50 [7]: 0.973 µM (active)
GI50 [8]: 1.36 µM (inactive)
GI50 [20]: 1.32 µM (inactive)
GI50 [9]: 2.94 µM (inactive)
GI50 [11]: 0.583 µM (active)
GI50 [12]: 1.58 µM (inactive)
GI50 [13]: 2.22 µM (inactive)
GI50 [14]: 0.488 µM (active)
GI50 [15]: 1.57 µM (inactive)
GI50 [16]: 1.87 µM (inactive)

NC(=O)n1ncc(Cl)c(Cl)c1=O
GI50 [1]: > 100 µM (inactive)
GI50 [2]: > 100 µM (inactive)
GI50 [17]: > 100 µM (inactive)
GI50 [3]: > 100 µM (inactive)
GI50 [5]: > 100 µM (inactive)
GI50 [6]: > 100 µM (inactive)
GI50 [7]: > 100 µM (inactive)
GI50 [8]: > 100 µM (inactive)
GI50 [9]: > 100 µM (inactive)
GI50 [10]: > 100 µM (inactive)
GI50 [11]: > 100 µM (inactive)
GI50 [12]: > 100 µM (inactive)
GI50 [15]: > 100 µM (inactive)
GI50 [16]: > 100 µM (inactive)

CC(C)=CCC/C(=C/CC/C(C)=C/CCc1ccoc1)C(=O)O
GI50 [18]: > 100 µM (inactive)
GI50 [1]: > 100 µM (inactive)
GI50 [2]: > 100 µM (inactive)
GI50 [17]: > 100 µM (inactive)
GI50 [4]: > 100 µM (inactive)
GI50 [5]: > 100 µM (inactive)
GI50 [6]: > 100 µM (inactive)
GI50 [7]: > 100 µM (inactive)
GI50 [8]: > 100 µM (inactive)
GI50 [9]: > 100 µM (inactive)
GI50 [10]: > 100 µM (inactive)
GI50 [11]: > 100 µM (inactive)
GI50 [12]: > 100 µM (inactive)
GI50 [14]: > 100 µM (inactive)
GI50 [15]: > 100 µM (inactive)
GI50 [16]: > 100 µM (inactive)

Cc1cc(O)nc(CNC(=O)c2cccc3ccccc23)n1
GI50 [18]: > 100 µM (inactive)
GI50 [1]: > 100 µM (inactive)
GI50 [2]: > 100 µM (inactive)
GI50 [17]: > 100 µM (inactive)
GI50 [3]: > 100 µM (inactive)
GI50 [4]: > 100 µM (inactive)
GI50 [5]: > 100 µM (inactive)
GI50 [6]: > 100 µM (inactive)
GI50 [7]: > 100 µM (inactive)
GI50 [8]: > 100 µM (inactive)
GI50 [9]: > 100 µM (inactive)
GI50 [10]: > 100 µM (inactive)
GI50 [11]: > 100 µM (inactive)
GI50 [12]: > 100 µM (inactive)
GI50 [14]: > 100 µM (inactive)
GI50 [15]: > 100 µM (inactive)
GI50 [16]: > 100 µM (inactive)
